Data: US7429460B2, “Methods of screening for inhibitors of phospholipid synthesis related to glycolipid-storage diseases” (Yeda Research and Development Co., Ltd., priority 2003, dated 2008)

What was measured:
rat hippocampal neurons [1] = test: Labeling of neuronal lipids with [14C]methyl choline; type: cell-based; details: after 4-days of treatment, remained elevated for at least 8-days
Method: Neurons were incubated for 48 h with 1 μCi [^14C]methyl choline/ml of culture medium. Subsequently, medium was removed and the neurons were washed 3-times with phosphate-buffered saline. Neurons were removed from the cover slips by scraping with a rubber policeman into 2 ml of cold methanol, and then sonicated. Part of the resulting suspension was used for lipid analysis, part for analysis of the incorporation of total radioactivity into the cells, and part for DNA analysis (see below).
Lipids were extracted by addition of chloroform to obtain a final chloroform/methanol ratio of 1:1 (v/v). The lower phase was dried under N2 and the upper phase was kept for analysis of [^14C]methyl choline incorporation into water-soluble metabolites. […] One ml of methanol and 5 ml of Optima Gold scintillation fluid (Packard, Downers Groove, Ill.) were added to each vial for scintillation counting, and radioactivity was determined in a Packard 2100 beta radiospectrometer equipped with the Transformed Spectral Index of the External Standard/Automatic Efficiency Control (tSIE/AEC) program for quench correction and counting of double radiolabeled samples.

rat hippocampal neurons [2] = test: [14C]PC degradation and acetolysis of [14C]PC in neurons; type: cell-based; details: CBE-treated neurons
Method: In some cases, acetolysis was performed to determine the amount of [^14C]-radioactivity that remained in the [^14C]methyl choline head group moiety of [^14C]PC after 48 h labeling with [^14C]methyl choline. [^14C]PC was removed from TLC plates by scraping, eluted from the silica using chloroform/methanol/acetic acid/water (50:39:1:10, v/v/v/v), and subjected to acetolysis. Briefly, 2 ml of acetic anhydride/acetic acid (2:3, v/v) was added to the tubes containing [^14C]PC, the mixture heated at 140° C. for 16 h, 200 μl of water added to each tube, dried under N2, and separated into aqueous and organic phases. […] [^14C]-Lipids and the [^14C]-head group polar moieties were analyzed and quantified as above.
Since metabolic labeling with [^14C]methyl choline was performed for up to 48 h (due to the relatively low amount of neurons available), we analyzed whether the increase in [^14C]methyl choline levels was due to changes in the rate of [^14C]PC synthesis or in the rate of [^14C]PC degradation. Neurons were incubated with [^14C]methyl choline to metabolically label [^14C]PC, and the rate of [^14C]PC degradation measured. No difference in the rate of degradation between control and CBE-treated neurons was detected (FIG. 3). […]

rat hippocampal neurons [3] = details: 200 μM CBE, after 3 days in culture; cited from earlier work

O[C@H]1[C@H](O)[C@@H](O)[C@@H]2O[C@@H]2[C@@H]1O (racemic) [CBE, conduritol-B-epoxide]
[14C]methyl choline incorporation into [14C]SM and [14C]PC (rat hippocampal neurons [1]): significant increase | rate of [14C]PC degradation versus control (rat hippocampal neurons [2]): No difference | axons longer than untreated counterparts (rat hippocampal neurons [3]): ~20%
